Values joined by “and” are separate entries in the source; they are usually repeats but may differ in a detail not shown here. Equal entries are not always repeated.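 Each compound was tested at five concentrations against cells in 96-well plates for 48 hours. GI50: concentration for 50% inhibition of growth. At the TGI there is no net growth.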
Legend:
Experiment in all cases: inhibition of tumour cell growth, NCI panel, 48 h
[1] = tested on: SK-OV-3 ovarian
[2] = tested on: IGROV1 ovarian
[3] = tested on: RXF 393 renal
[4] = tested on: HCT-116 colon
[5] = tested on: OVCAR-5 ovarian
[6] = tested on: COLO 205 colon
[7] = tested on: HCT-15 colon
[8] = tested on: KM20L2 colon
[9] = tested on: HOP-62 NSCLC
[10] = tested on: DMS 114 small cell lung
[11] = tested on: M14 melanoma
[12] = tested on: SW-620 colon
[13] = tested on: DLD-1 colon
[14] = tested on: M19-MEL melanoma
[15] = tested on: UO-31 renal
[16] = tested on: UACC-257 melanoma
[17] = tested on: SF-268 CNS
[18] = tested on: NCI-H23 lung
[19] = tested on: OVCAR-8 ovarian
[20] = tested on: MALME-3M melanoma
[21] = tested on: HOP-18 NSCLC
[22] = tested on: RPMI-8226 leukemia
[23] = tested on: SNB-78 CNS
[24] = tested on: SK-MEL-5 melanoma
[25] = tested on: HCC-2998 colon
[26] = tested on: CAKI-1 renal
[27] = tested on: OVCAR-4 ovarian
[28] = tested on: TK-10 renal
[29] = tested on: A549 NSCLC

Compound: COC(C)(C)[C@H](O)C(O)CC(C)[C@@H]1CCC23CC12CCC1[C@@]2(C)CCC(OC(C)=O)C(C)(C)C2CC(OC2OC(COC(C)=O)C(O)C(O)C2O)[C@]13C (some centres undefined)
- GI50 [1]: 7.76 µM
- TGI [1]: 17.7 µM and 20.4 µM
- GI50 [2]: 3.59 µM
- TGI [2]: 8.11 µM and 15 µM
- TGI [3]: 11.8 µM
- GI50 [4]: 4.78 µM
- TGI [4]: 8.67 µM and 13.4 µM
- GI50 [5]: 3.92 µM
- TGI [5]: 8.54 µM and 14.3 µM
- GI50 [6]: 2.17 µM
- TGI [6]: 11.3 µM and 4.58 µM
- GI50 [7]: 6.86 µM
- TGI [7]: 6.28 µM and 19.8 µM
- GI50 [8]: 2.63 µM
- TGI [8]: 2.12 µM and 7.94 µM
- TGI [9]: 17.2 µM and 23.9 µM
- GI50 [10]: 3.62 µM
- TGI [10]: 8.65 µM and 12.8 µM
- GI50 [11]: 3.58 µM
- TGI [11]: 9.78 µM and 14.2 µM
- GI50 [12]: 4.67 µM
- TGI [12]: 13.7 µM and 15.3 µM
- GI50 [13]: 3.13 µM
- TGI [13]: 6.29 µM and 9.73 µM
- GI50 [14]: 4.04 µM
- TGI [14]: 10.2 µM and 13.8 µM
- TGI [15]: 14.5 µM and 18.6 µM
- GI50 [16]: 11.5 µM
- TGI [16]: 11.7 µM and 26 µM
- GI50 [17]: 6.87 µM
- TGI [17]: 12.4 µM and 21.3 µM
- GI50 [18]: 11.3 µM
- TGI [18]: 16 µM and 25.2 µM
- GI50 [19]: 6.13 µM
- TGI [19]: 14 µM and 20.7 µM
- GI50 [20]: 12.8 µM
- TGI [20]: 17.1 µM and 26 µM
- GI50 [21]: 4.15 µM
- TGI [21]: 19.7 µM and 13.3 µM
- GI50 [22]: 3.77 µM
- TGI [22]: 6.54 µM and 17.1 µM
- GI50 [23]: 14 µM
- TGI [23]: 17.9 µM and 31.7 µM
- GI50 [24]: 10.2 µM
- TGI [24]: 12.8 µM and 23.3 µM
- TGI [25]: 4.94 µM
- GI50 [26]: 8.27 µM
- TGI [26]: 10.2 µM and 20.2 µM
- GI50 [27]: 7.01 µM
- TGI [27]: 13.1 µM and 21.3 µM
- GI50 [28]: 10.7 µM
- TGI [28]: 14.9 µM and 23.4 µM
- GI50 [29]: 3.67 µM
- TGI [29]: 10.1 µM and 13.8 µM
